Results as given in US6380465B1, “Cytochrome P450 enzymes and related compounds and methods” (University of Kentucky Research Foundation, priority 1998, dated 2002).

Experiments:
CYP72A1 P450 = experiment: Metabolism of pesticide substrates by the CYP72A1 P450 expressed with a reductase (yeast microsomes, [14C]-labeled substrates, HPLC); assay type: in vitro ADME, Zea mays (maize); details: expressed in the presence of a reductase; chromatographs FIGS. 8-11
Source text: Both genes (CYP72A1 and CYP92A1), obtained as described in Example 1, were introduced into pYeDP60 vector for yeast expression. CYP72A1 was introduced as a full length gene with in-frame Met 1 and 8 as the start codons, while CYP92A1 was modified for the expression.
Expression strategies include using both full length or truncated (Met 8 start site) CYP72A1 cDNA in yeast strains WAT11, WAT21 W (R) from Philippe Urban and Denis Pompon, with, optionally, yeast vector pYeDP60. Expression is ideally achieved with full length cDNA and WAT11. Expression may also require 36 hours rather than 24 hours of galactose induction prior to microsome preparation. Glucose (SGI) or galactose (SLI) media prior to induction will give expression.
Metabolism experiments can be accomplished using microsomes prepared from yeast cells. The substrates can be incubated with [^14C]-labeled substrates and products analyzed by HPLC.

CYP72A1 = experiment: Induction of CYP72A1 expression by NA-treatment (Northern blot, maize seedlings); assay type: in vivo; details: FIG. 5
Protocol: (§1) A maize cDNA library was constructed from napthalic anhydride (NA)-treated Pioneer 3343IR 3.5-day-old seedlings using lambda-ZAPII vector kit (Stratagene).
(§2) Northern blot analysis was performed with total RNA isolated from control and […] and hybridized under high stringency conditions. To estimate the copy number, Southern blot analysis was performed using genomic DNA from 3343IR maize which was digested with SacI EcoRV, EcoRI, HindIII, and BamHI. The analysis was carried out under high stringency (65 degrees Celsius in 0.1×SSC and 0.1% SDS).
(§3) Based on the results of the genomic Southern blot analysis, the hybridization patterns were consistent with those predicted from the restriction patterns of the corresponding cDNAs. […] Certain physico-chemical characteristics for the deduced proteins, antigenicity and secondary structure were calculated using Network Protein Sequence Analysis at IBCP, France.

CYP92A1 = experiment: Induction of CYP92A1 expression by NA-treatment (Northern blot, maize seedlings); assay type: in vivo; details: FIG. 5
Protocol: as §1, §2, §3

corn line GA209 = details: FIG. 12, thesis of Laura Boldt; cited from earlier work
CYP73A1 = biological target: T1, CYP73A1 (Helianthus tuberosus, UniProt Q04468); details: cited from earlier work
T1 sequence (Q04468 1-505): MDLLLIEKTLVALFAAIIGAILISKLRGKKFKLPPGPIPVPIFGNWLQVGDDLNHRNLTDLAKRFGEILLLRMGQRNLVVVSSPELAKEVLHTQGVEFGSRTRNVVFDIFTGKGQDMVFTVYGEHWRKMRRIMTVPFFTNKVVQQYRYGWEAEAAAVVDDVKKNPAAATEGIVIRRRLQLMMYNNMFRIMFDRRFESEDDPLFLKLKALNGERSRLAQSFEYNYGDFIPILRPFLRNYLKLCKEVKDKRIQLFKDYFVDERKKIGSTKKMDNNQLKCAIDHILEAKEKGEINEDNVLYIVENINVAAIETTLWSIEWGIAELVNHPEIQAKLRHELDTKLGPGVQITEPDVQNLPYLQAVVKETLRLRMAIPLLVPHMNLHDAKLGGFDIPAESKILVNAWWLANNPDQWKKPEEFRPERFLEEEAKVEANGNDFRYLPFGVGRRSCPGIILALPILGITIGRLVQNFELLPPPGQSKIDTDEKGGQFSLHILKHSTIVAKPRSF

soybean P450 = details: cited from earlier work
[1] = test system: multiple pesticide metabolizing P450 in corn; details: FIG. 13, cited from earlier work

## O=C(O)COc1ccc(Cl)cc1Cl [2,4-D]
CYP72A1 P450
  metabolism of the substrate by the CYP72A1 P450: Unmetabolized

## O=C1OC(=O)c2cccc3cccc1c23 [NA, napthalic anhydride]
CYP72A1
  induction of CYP72A1 expression: highly induced
CYP92A1
  induction of CYP92A1 expression: induced significantly less

## CCc1cccc(CC)c1N(COC)C(=O)CCl [alachlor]
CYP72A1 P450
  metabolism of the substrate by the CYP72A1 P450: Unmetabolized

## CC(C)N1C(=O)c2ccccc2NS1(=O)=O [bentazon]
CYP72A1 P450
  metabolism of the substrate by the CYP72A1 P450: shown to metabolize
Corn line GA209
  sensitivity of corn line GA209 to the herbicide: sensitive

## COc1cc(Cl)nc(NC(=O)NS(=O)(=O)c2ccccc2C(=O)O)n1 [chlorimuron]
CYP72A1 P450
  metabolism of the substrate by the CYP72A1 P450: shown to metabolize

## Cc1ccc(NC(=O)N(C)C)cc1Cl [chlortoluron]
CYP73A1
  metabolism by CYP73A1: shown to metabolize
CYP72A1 P450
  metabolism of the substrate by the CYP72A1 P450: shown to metabolize
Soybean P450
  metabolism by a soybean P450: shown to metabolize

## CCc1cnc(C2=NC(C)(C(C)C)C(=O)N2)c(C(=O)O)c1 (stereo not drawn) [imazethapyr]
Corn line GA209
  sensitivity of corn line GA209 to the herbicide: sensitive

## CON(C)C(=O)Nc1ccc(Cl)c(Cl)c1 [linuron]
CYP72A1 P450
  metabolism of the substrate by the CYP72A1 P450: Unmetabolized
Soybean P450
  metabolism by a soybean P450: shown to metabolize

## CCOC(=O)CC(SP(=S)(OC)OC)C(=O)OCC (stereo not drawn) [malathion]
CYP72A1 P450
  metabolism of the substrate by the CYP72A1 P450: shown to metabolize

## COc1cc(OC)nc(NC(=O)NS(=O)(=O)c2ncccc2C(=O)N(C)C)n1 [nicosulfuron]
Corn line GA209
  sensitivity of corn line GA209 to the herbicide: sensitive

## O=C(Nc1nc(OC(F)F)cc(OC(F)F)n1)NS(=O)(=O)c1ccccc1C(=O)O [primisulfuron]
Corn line GA209
  sensitivity of corn line GA209 to the herbicide: sensitive

## CCOP(=S)(OCC)SCS(=O)(=O)C(C)(C)C [terbufos-sulfone]
[1]; substrate bentazon
  inhibition of in-vitro metabolism of bentazon: inhibited
[1]; substrate chlorimuron
  inhibition of in-vitro metabolism of chlorimuron: inhibited
[1]; substrate imazethapyr
  inhibition of in-vitro metabolism of imazethapyr: inhibited
[1]; substrate malathion
  inhibition of in-vitro metabolism of malathion: inhibited
[1]; substrate nicosulfuron
  inhibition of in-vitro metabolism of nicosulfuron: inhibited
